Molecules are shown by their SMILES. “Also recorded” adds a separate entry of the source.

Series [1] deals with Acute Promyelocytic Leukemia (APL) cell line NB4 and Arsenic resistant NB4-AsR cell line. The experiment in a line: Annexin-V apoptosis assay with PDE-4 inhibitor pre-treatment plus ATO in APL cells. It is filed as cell-based, human. How it is done:
(§1) The Parental Acute Promyelocytic Leukemia (APL) cell line NB4 and the Arsenic resistant NB4-AsR cell line were seeded at 0.8×10^5 cells/mL of fresh RPMI 1640 medium (Sigma Aldrich), supplemented with 10% fetal calf serum, 2 mM L-glutamine, penicillin G (100 U/mL), streptomycin ([…]). Cells were pre-treated for 30 minutes with vehicle (DMSO), CHF-6001 (1 and 10 μM), Roflumilast (1 and 10 μM) or Piclamilast (1, and 50 μM) and then incubated with ATO at the indicated doses. After 72 hours cells were collected, stained with Annexin-V FITC (according to the manufacturer's recommendations—Bender MedSystems) and processed by flow cytometry (FACSCalibur, Becton Dickinson, San Josè, Calif.) to evaluate the percentage of apoptosis as described in Lunghi P et al., Leukemia. 2005; 19(2):234-44, which is incorporated herein by reference in its entirety.

The test system of series [2] is Imatinib-sensitive (K562-SENS, LAMA-SENS, KCL22-SENS) and Imatinib-resistant (K562-RES, LAMA-RES, KCL22-RES and BAF3 p210-T315I) chronic myeloid leukemia (CML) …. Put plainly: Apoptosis (sub-G1 propidium iodide or Annexin-V) with PDE-4 inhibitor plus ATO in CML cell lines. It is filed as cell-based, human. On the procedure: as §1
The Imatinib-sensitive (K562-SENS, LAMA-SENS, KCL22-SENS) and Imatinib-resistant (K562-RES, LAMA-RES, KCL22-RES and BAF3 p210-T315I) chronic myeloid leukemia (CML) cell lines were cultured with the PDE-4 inhibitor and ATO as described in Example 1. After 72 hours cells were harvested, stained with Propidium Iodide to evaluate the percentage of cells with hypodiploid DNA content (sub-G1) or with Annexin-V FITC as described in Lunghi P et al Leukemia. 2005; 19(2):234-44, which is incorporated herein by reference in its entirety.

The test system of series [3] is LAMA-RES, NB4 and NB4-AsR cell lines. Put plainly: C2/ATO-induced apoptosis (annexin V) in the presence of caspase inhibitors. It is filed as cell-based, human. The settings on record: caspase inhibitors 25 μM, 1 hour pre-treatment; 24 hours; FIG. 4. The text has this: On the Y-axis the histograms represent the percentage of apoptotic cells measured by Annexin V staining (% ANNEXIN V+). NEG indicates peptide control Cbz-Phe-Ala-fluoromethyl ketone (Z-FA-FMK), CASPASE-8 IN, specific caspase-8 inhibitor Cbz-Ile-Glu(Ome)-Thr-Asp(Ome)-fluoromethyl ketone (Z-IETD-FMK), CASPASE-9 IN, specific caspase-9 inhibitor Cbz-Leu-Glu(Ome)-His-Asp(Ome)-fluoromethyl ketone (Z-LEHD-FMK), PANCASPASE IN, pancaspase inhibitor Cbz-Val-Ala-Asp(Ome)-fluoromethyl ketone (Z-VAD-FMK); CTR, control; C2, compound C2; ATO, arsenic trioxide.
LAMA-RES, NB4 and NB4-AsR cell lines were pretreated with selective caspase inhibitors for 1 hour before adding C2 and/or ATO. After 24 hours the percentage of apoptotic cells was determined by the annexin V method. More specifically, the caspase inhibitors are: NEG peptide control Cbz-Phe-Ala-fluoromethyl ketone (Z-FA-FMK), CASPASE-8 inhibitor Cbz-Ile-Glu(Ome)-Thr-Asp(Ome)-fluoromethyl ketone (Z-IETD-FMK), CASPASE-9 inhibitor Cbz-Leu-Glu(Ome)-His-Asp(Ome)-fluoromethyl ketone (Z-LEHD-FMK), and the PANCASPASE inhibitor Cbz-Val-Ala-Asp(Ome)-fluoromethyl ketone (Z-VAD-FMK), all provided from Alexis (San Diego, Calif., USA). All caspase inhibitors were dissolved in DMSO, stocked in aliquots at −20° C., and used at the final concentration of 25 μM.

In series [4] the test system is NB4 and NB4-AsR Acute Promyelocytic Leukemia cell lines. Put plainly: Myeloid differentiation (CD11b expression, NBT reduction test) with ATRA or low-dose ATO. The class given is cell-based, human. How it is done: NB4 and NB4-AsR were seeded at 0.8×10^5 cells/mL in presence of vehicle (DMSO) or the PDE-4 inhibitor at the indicated doses for 30 minutes and then incubated with 0.1 μM and 1 μM of all-trans retinoic acid ([…]) promoting cell differentiation (see Chen GQ et al., Blood. 1997; 89(9):3345-53, which is incorporated herein by reference in its entirety). After 72 hours of treatment, early and late stage of differentiation was evaluated. More specifically, expression of the cell surface CD11b, an early-expressed maturation marker, was measured by flow cytometry using fluorescein isothiocyanate (FITC)-conjugated anti-CD11b antibody (Sigma Chemical Co.) according to the manufacturer's protocol. Late stage differentiation of leukemic cells was detected using the microscopic nitroblue tetrazolium (NBT) reduction test (Chen GQ et al., vide supra).
This assay is conducted by counting the cells containing blue NBT formazan deposits, which are formed by reduction of the membrane permeable, water-soluble, yellow-colored, nitroblue tetrazolium (NBT) by superoxide anions O2. Over 300 cells were counted per sample, and variation in replicates was routinely within 10%.

The subject of series [5] is NB4 and NB4-AsR cell lines. Put plainly: Myeloid marker panel (CD33, CD38, CD11b, CD14, CD15) and NBT reduction with C2/ATRA. It is filed as cell-based, human. On the procedure:
On the Y-axis the histograms represent, for each cell line, the percentage of myeloid differentiation measured using a panel of myeloid markers (CD33, CD38, CD11b, CD15, CD14) and nitroblue tetrazolium reduction test (% NBT+). Vehicle indicates Dimethyl sulfoxide (DMSO); C2, compound C2; CTR, control; ATRA, all-trans retinoic acid.
NB4 e NB4-AsR cell lines were cultured with C2/ATRA for 72 hours, after which cells were harvested for determination of NBT reduction and expression of differentiation-associated surface antigens CD33, CD38, CD11b, CD14 and CD15. Cytofluorimetric analysis of surface antigen expression was performed using the following monoclonal antibodies all provided by Sigma Chemical: fluorescein isothiocyanate (FITC)-conjugated anti-CD33 antibody, (FITC)-conjugated anti-CD38 antibody, (FITC)-conjugated anti-CD11b antibody, (FITC)-conjugated anti-CD 14 antibody and (FITC)-conjugated anti-CD15 antibody. Briefly, each antibody was incubated at the proper dilution with cell samples in PBS containing 1% BSA for 30 minutes at room temperature. Cells were then washed and resuspended with PBS and analyzed by flow cytometer.

For series [6], the system named is chronic lymphocytic leukemia (CLL) B-lymphocytes. The settings on record: in vitro; Mentz F et al., Br. J. Hematol. 1995; cited from earlier work.

As for `CS(=O)(=O)Nc1ccc(C(=O)O[C@@H](Cc2c(Cl)c[n+]([O-])cc2Cl)c2ccc(OC(F)F)c(OCC3CC3)c2)cc1OCC1CC1` [Compound C2, (-)-3-Cyclopropylmethoxy-4-methanesulfonylamino-benzoic acid 1-(3-cyclopropylmethoxy-4-difluoromethoxy-phenyl)-2-(3,5-dichloro-1-oxy-pyridin-4-yl)-ethyl ester], the “effectiveness versus roflumilast or piclamilast in potentiating the proapoptotic effects of ATO” value in series [1] (APL cells incl. ATO-resistant, P<0.001 versus same doses of comparator + ATO, P<0.005 C2 1 μM versus comparator 10 μM) is given as “more effective than CHF 5152 (roflumilast) or CHF 5859 (piclamilast)”; in series [2] (CML cell lines, same doses of comparator + ATO, P<0.001 to P<0.05) it was “more effective than Roflumilast or Piclamilast”. Besides, the “potentiation of the proapoptotic effects of ATO (% Annexin V+ cells)” value in series [1] (C2 1 μM/10 μM + ATO 1 μM, 72 hours, P<0.001 versus either mono-treatment, FIG. 1) is listed as “potentiates the proapoptotic effects of ATO”. Moreover, the “potentiation of the proapoptotic effects of ATO (% sub-G1 or % Annexin V+)” value in series [2] (C2 1 μM/10 μM + ATO 2 μM (ATO 1 μM in Baf3-T315I), 72 hours, P<0.001, P<0.05 in K562-RES, versus either mono-treatment, FIG. 2) was “potentiates the proapoptotic effects of ATO”. Moreover, in series [3], the “enhancement of ATO-induced cytotoxicity and caspase dependence (% Annexin V+)” value is “strikingly enhances ATO-induced cytotoxicity in leukemia cells through a caspase-dependent mechanism”. Besides, the “expression of the myeloid marker CD11b (% CD11b+)” value in series [4] (72 hours, FIG. 6) is recorded as “upregulates the expression of the myeloid marker CD11b”. Besides, in series [4] (ATO-sensitive or ATO-resistant APL cell lines, same doses of comparator, P<0.001 to P<0.01), the “effectiveness versus Roflumilast or Piclamilast in potentiating the cytodifferentiating action of ATRA or ATO” value is on record as “more effective than Roflumilast or Piclamilast”. Moreover, the “potentiation of the cytodifferentiating action of ATRA and ATO” value in series [4] (C2 1 μM/10 μM + ATRA or + ATO 1 μM, P<0.001 versus either mono-treatment, NB4 and NB4-AsR, 72 hours) is “potentiates the cytodifferentiating action of ATRA and ATO”. Also, the “dose inducing CD38 and CD11b expression relative to piclamilast” value in series [5] (ATO-sensitive or ATO-resistant acute promyelocytic leukemia cells) was 5 fold lower. Also, in series [5] (C2 as mono-treatment, ATO-sensitive or ATO-resistant APL cells, 72 hours, FIG. 7), the “induction of the early myeloid markers CD38 and CD11b” value is “capable of inducing the expressions of the early myeloid markers CD38 and CD11b; also recorded: induces upregulation of the myeloid markers (CD38 and CD11b); also recorded: able to partially induce an early myeloid differentiation”. Besides, the “enhancement of the cytodifferentiating action of ATRA” value in series [5] (very low-dose ATRA, ATO-sensitive or ATO-resistant APL cell lines, 72 hours) is recorded as “enhances the cytodifferentiating action of very low-dose of ATRA”.

For `Cn1c(=O)c2[nH]cnc2n(C)c1=O` [theophylline], in series [6], the induction of apoptosis entry is listed as “induce apoptosis”.
